From patent US20240209022A1, “NOVEL PEPTIDE HAVING ANTI-INFLAMMATORY AND TISSUE REGENERATIVE ACTIONS” (KOREA RESEARCH INSTITUTE OF BIOSCIENCE AND BIOTECHNOLOGY, priority 2020, published 2024)

Columns and labels:
[1] = tested on: MIA-induced degenerative arthritis model; test: MIA-induced degenerative arthritis model; format: in vivo, C57BL/6J mice; conditions: vs PBS buffer group; for diameter of the knee joint: day 1 after MIA injection, i.p.
Description: As a degenerative arthritis model, 9-week-old specific pathogen free (SPF) male C57BL/6J mice were anesthetized, the area around the right knee joint was cleanly shaved, and 10 μL of MIA solution (monosodium iodoacetate 0.5 mg in 10 μL 0.9% sterile saline) was injected into the knee joint cavity to induce arthritis. From 3 days before MIA (monosodium iodoacetate) solution injection, Amuc_1409 or PEP001, PEP002, PEP003, PEP004, PEP005, PEP006, PEP007, PEP008, PEP009, PEP010, PEP011, PEP012, or PEP013 was dissolved in PBS buffer at a concentration of 6.7 μM and then injected into the mouse peritoneal cavity at 150 μL per animal once a day at the same time. On day 3 (0 days) after administration of Amuc_1409 or PEP001 to PEP013, an additional intraperitoneal injection was given 1 hour before MIA injection, the drug was intraperitoneally injected once a day at the same time after MIA injection, and the experiment was terminated on the 30th day after MIA injection. In the control group, the same volume of PBS buffer was injected intraperitoneally. After MIA injection, the diameter of the knee joint was measured using a caliper for 7 days at 2-day intervals (0, 1, 3, 5, and 7 days) to evaluate swelling caused by inflammatory changes of the joint. […] At this time, the weight bearing on the limb was lower as arthritis was more severe. The weight-bearing weight (g) of each of both paws was measured, and in this experiment, the value was expressed as the ratio (%) of the right hind limb with arthritis to the total hind limb. Weight bearing ratio (%)=weight-bearing weight of right hind limb with arthritis (g)/weight-bearing weight of both hind limbs (g)×100 After termination of the experiment, the test animals were sacrificed, then the knee joint tissue of the mouse was fixed with 10% neutral buffered formalin, and the bone was decalcified with a 0.5 M EDTA solution. Next, the joint tissue was embedded in paraffin to prepare a 5 μm joint section, and Safranin O staining was performed to histopathologically analyze the degree of damage to the cartilage tissue. At this time, the degree of damage to the cartilage tissue was evaluated by examining the degree of safranin O staining of the sections and scored according to OARSI (Osteoarthritis Research Society International grade) guidelines. The scoring criteria according to the OARSI guidelines are as follows (Table 1). [table]

[2] = tested on: collagen induced arthritis (CIA) model; test: Collagen induced arthritis (CIA) rheumatoid arthritis model; format: in vivo, DBA/1J mice; conditions: vs PBS buffer group; for thickness of the ankle joint: at the end of the experiment
[3] = tested on: non-alcoholic hepatitis model; test: High-fat diet-induced non-alcoholic steatohepatitis model, liver gene expression; format: in vivo, C57BL/6J mice; conditions: RT-qPCR; vs PBS buffer group
Description: A non-alcoholic hepatitis model was induced by feeding a high-fat diet to 8-week-old SPF male C57BL/6J mice. The experiment for groups administered with Amuc_1409 and PEP001 to PEP005 was performed as follows. Mice fed a high-fat diet for 45 weeks were fed a high-fat diet for an additional 3 weeks, and Amuc_1409 was dissolved in PBS buffer at a concentration of 2.4 μM and then orally administered to the mice by 150 μL per animal at the same time once a day until the end of the experiment, or mice fed a high-fat diet for 8 weeks were fed a high-fat diet for an additional 3 weeks, and PEP001, PEP002, PEP003, PEP004, or PEP005 was dissolved in PBS buffer at a concentration of 2.4 μM and then orally administered to the mice by 150 μL per animal at the same time once a day until the end of the experiment. To the control group, PBS buffer was orally administered in the same manner. The experiment for groups administered with PEP006 to PEP013 was performed as follows. The non-alcoholic hepatitis model was induced by ad libitum feeding of a high-fat diet for 32, 50, or 53 weeks. Mice fed a high-fat diet for 50 weeks were fed a high-fat diet for an additional 3 weeks, and a novel tetrapeptide PEP006, PEP007, PEP008, PEP009, or PEP010 was dissolved in PBS buffer at a concentration of 0.2 μg/150 μL and then orally administered to the mice by 150 μL per animal at the same time until the end of the test, and mice fed a high-fat diet for 53 weeks were fed a high-fat diet for an additional 3 weeks, and a novel […] PEP011, PEP012, or PEP013 was dissolved in PBS buffer at a concentration of 0.2 μg/150 μL and then orally administered to the mice by 150 μL per animal at the same time until the end of the test. To the control group, PBS buffer was orally administered in the same manner. At the end of the experiment, a part of the liver harvested was homogenized with Trizol to extract RNA. Reverse transcriptase was added to the obtained RNA and reacted to synthesize cDNA, and SYBR Green and primers were added to perform quantitative real-time PCR (RT-qPCR), and then the expression levels of genes such as Tnfα, Il-1β, Il-10, and Il-1rn were quantified.

[4] = tested on: full-thickness skin defect wound-induced model; test: Full-thickness skin defect wound-induced model (tail); format: in vivo, C57BL/6J mice; conditions: 120 μM, 25 μL applied once a day for 28 days; vs vehicle
Description: In order to confirm the tissue regeneration efficacy of the novel peptides, an experiment was conducted using a wound-induced model induced by a full-thickness skin defect of mouse's tail. For a full-thickness skin defect wound-induced model, 9-week-old specific pathogen free (SPF) male C57BL/6J mice were anesthetized, and then in order to indicate full-thickness wounding, a full-thickness wound with a size of 10 mm×3 mm was made on the dorsal part of the mouse's tail, about 1.0 cm away from the base of the mouse's tail, using an aseptic dissection mass No. 10. Bleeding was stopped by compressing the wound, and the wound was covered with a film spray dressing (Cavilon, 3M). For 28 days from the day of wound induction, Amuc_1409 or PEP001 to PEP013 were each dissolved in vehicle (50% ethanol, 20% propylene glycol, 30% water) at a concentration of 120 μM and then applied to the wound site by 25 μL per animal once a day. For the control group, the same volume of vehicle (50% ethanol, 20% propylene glycol, 30% water) was applied to the wound site. The test was terminated on day 29 after wound induction. In order to observe the wound healing effect, the wound sites of animals in each test group were individually photographed using a digital camera at a constant height from the wound for 28 days at 7-day intervals from the day of wound induction, and the wound area was measured using the Image J Soft program.

[5] = 2 weeks and 4 weeks after MIA injection
[6] = days 3, 5, and 7 after MIA injection

Row | Substance | weight bearing ratio [1, 5] | diameter of the knee joint [1] | thickness of the knee joint [1, 6] | thickness of the ankle joint [2] | arthritis index (clinical score by date) [2] | swelling of the hind paws by macrophotography [2] | 11-10, which is an anti-inflammatory index (liver gene expression) [3] | Il-1p gene expression in liver tissue [3] | wound area [4] | wound size (visually confirmed) [4] | Tnfα gene expression in liver tissue [3] | weight bearing ratio ([1]; 2 weeks after MIA injection) | weight bearing ratio ([1]; 4 weeks after MIA injection) | thickness of the knee joint ([1]; day 3 after MIA injection) | thickness of the knee joint ([1]; day 5 after MIA injection) | thickness of the knee joint ([1]; day 7 after MIA injection) | Ifnγ gene expression in liver tissue [3] | Il-6 gene expression in liver tissue [3]
1 | AVSSI (PEP002) | significantly increased | significantly decreased | significantly decreased | significantly decreased | significantly decreased from day 26 after the first CII injection to the experiment end day | reduced overall | tended to increase close to a significant level | significantly decreased | significantly decreased | rapidly decreased | – | – | – | – | – | – | – | –
2 | GAY [PEP005] | significantly increased | tended to decrease | significantly decreased | significantly decreased | significantly decreased from day 28 after the first CII injection to the experiment end day | reduced overall | significantly increased | significantly decreased | significantly decreased | rapidly decreased | significantly decreased | – | – | – | – | – | – | –
3 | AGS [PEP012] | significantly improved | – | – | significantly decreased | significantly decreased from day 32 after the first CII injection to the experiment end day | relieved overall | – | tended to decrease | – | – | – | – | – | – | – | – | – | –
4 | VGAY (PEP010) | – | tended to decrease | – | significantly decreased | significantly decreased from day 30 after the first CII injection to the experiment end day | remarkably improved | – | significantly decreased | significantly decreased | rapidly decreased | tended to decrease | significantly increased | significantly increased | significantly decreased | significantly decreased | significantly decreased | tended to decrease | tended to decrease
5 | KGAY (PEP003) | significantly increased | significantly decreased | significantly decreased | significantly decreased | significantly decreased from day 26 after the first CII injection to the experiment end day | reduced overall | significantly increased | significantly decreased | significantly decreased | rapidly decreased | significantly decreased | – | – | – | – | – | – | –
6 | IGAY (PEP008) | – | significantly decreased | – | significantly decreased | significantly decreased from day 30 to day 32 after the first CII | remarkably improved | – | significantly decreased | significantly decreased | rapidly decreased | significantly decreased | significantly increased | significantly increased | significantly decreased | significantly decreased | significantly decreased | decreased close to a significant level | tended to decrease
7 | SGAY (PEP009) | – | tended to decrease | – | significantly decreased | significantly decreased from day 30 after the first CII injection to the experiment end day | remarkably improved | – | significantly decreased | significantly decreased | rapidly decreased | tended to decrease | tended to increase close to a significant level | significantly increased | significantly decreased | tended to decrease | significantly decreased | tended to decrease | tended to decrease
8 | AQS [PEP011] | significantly improved | – | – | significantly decreased | significantly decreased from day 30 after the first CII injection to the experiment end day | relieved overall | – | tended to decrease | significantly decreased | rapidly decreased | – | – | – | – | – | – | tended to decrease | –
